Results reported in patent publication US8338450B2, “Compounds as dipeptidyl peptidase IV (DPP IV) inhibitors” (Lupin Limited, priority 2007, dated 2012).
Structures can show the parent of a compound that is named as a salt.

Each compound was assayed against T1, human recombinant DPP-IV (Homo sapiens, UniProt P27487) (assay: Inhibition of human recombinant DPP-IV (Gly-Pro-AMC hydrolysis, fluorometric)). Details: compound 10 nM; relative to vehicle controls.
T1 construct: purchased R&D Systems, USA (or produced in-house)
T1 sequence (P27487 whole entry): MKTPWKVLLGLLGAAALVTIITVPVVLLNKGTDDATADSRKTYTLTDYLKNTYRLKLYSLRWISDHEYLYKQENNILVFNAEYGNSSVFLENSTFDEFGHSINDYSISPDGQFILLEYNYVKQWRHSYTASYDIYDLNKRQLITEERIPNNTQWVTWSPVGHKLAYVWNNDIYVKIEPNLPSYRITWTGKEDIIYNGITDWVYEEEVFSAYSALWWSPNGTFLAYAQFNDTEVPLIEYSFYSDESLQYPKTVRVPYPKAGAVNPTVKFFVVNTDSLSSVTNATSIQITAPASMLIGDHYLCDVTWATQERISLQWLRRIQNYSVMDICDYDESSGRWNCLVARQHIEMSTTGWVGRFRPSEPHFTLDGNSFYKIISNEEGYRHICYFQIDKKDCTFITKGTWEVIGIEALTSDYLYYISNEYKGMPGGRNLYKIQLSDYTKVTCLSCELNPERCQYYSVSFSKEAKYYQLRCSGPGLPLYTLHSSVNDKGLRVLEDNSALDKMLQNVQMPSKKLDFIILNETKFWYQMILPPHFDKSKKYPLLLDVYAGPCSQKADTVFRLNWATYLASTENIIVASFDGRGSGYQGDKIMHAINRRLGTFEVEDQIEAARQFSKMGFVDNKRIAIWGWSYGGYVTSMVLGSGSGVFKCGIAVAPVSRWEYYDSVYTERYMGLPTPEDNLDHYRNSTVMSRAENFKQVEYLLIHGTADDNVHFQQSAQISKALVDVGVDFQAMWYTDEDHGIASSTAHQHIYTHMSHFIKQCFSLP
Type: biochemical
Procedure: Inhibition of Human Recombinant DPP-IV
The proteolytic activity of human recombinant DPP-IV was determined by following the hydrolysis of Gly-Pro-7-amino-4-methylcoumarin (Gly-Pro-AMC) and the fluorometric quantitation of the liberated AMC. Assays were routinely carried out in 96-well flat-bottom black microwell plates. The reaction mixture (100 μl) contained 10 ng of human recombinant DPP-IV enzyme (produced in-house or procured from R&D Systems, USA) in the assay buffer (25 mM Tris-HCl, pH 7.4, 140 mM NaCl, 10 mM KCl and 0.1 mg/ml BSA) and 50 μM Gly-Pro-AMC. After incubation of assay plates at 30° C. for 30 min, the hydrolysis of Gly-Pro-AMC was monitored in a fluorescence microplate reader (Molecular Devices SpectraMax M5), with excitation and emission wavelengths set at 360 nm and 460 nm, respectively.
The inhibition of DPP-IV activity by test compounds was routinely performed by preincubating the enzyme with test compound (10 and 100 nM for primary screening and 8 concentrations from 0.1 to 1000 nM for the dose-response study) or vehicle (0.01% DMSO) for 15 min at 30° C., in a total volume of 90 μl. Test compounds were dissolved in DMSO at a concentration of 10 mM and serially diluted further in assay buffer. The enzyme reaction was initiated by the addition of Gly-Pro-AMC, followed by incubation of assay plates for 30 min at 30° C. and the liberated AMC was measured as described above. A known inhibitor of DPP-IV (positive control) was always included in the assay. Test compounds at various concentrations were always evaluated in duplicate, along with substrate blanks, vehicle controls and positive controls.
The results are expressed as percent inhibition of the enzyme activity relative to vehicle controls. Dose-response studies were conducted for those compounds exerting ≧50% inhibition of activity at 10 nM in primary screening. IC50, defined as the inhibitor concentration which caused a 50% decrease of the activity under assay conditions, was computed using GraphPad Prism software, version 5.0.
The DPP-IV inhibition data (expressed either as IC50 in nanomolar or percent inhibition at a particular compound concentration) is presented in Table 1.

Row | SMILES | % inhibition at 10 nM [% inhibition at 10 nM]
1 | N#C[C@H]1C[C@H]2C[C@H]2N1C(=O)[C@H](N)C1CC2CCC(C1)N2C(=O)c1ccnc(F)c1.O=C(O)C(F)(F)F (stereo partly drawn) [Compound 30, (1R,3R,5R)-2-{(2R)-2-Amino-2-[8-(2-fluoropyridine-4-carbonyl)-8-aza-bicyclo[3.2.1]oct-3-yl]-exo-ethanoyl}-2-azabicyclo[3.1.0]hexane-3-carbonitrile trifluoroacetic acid salt] | 0
2 | N#C[C@@H]1C[C@@H]2C[C@@H]2N1C(=O)[C@@H](N)C1CC2CCC(C1)N2CCOCc1ccccc1.O=C(O)C(F)(F)F (stereo partly drawn) [Compound 50, (1S,3S,5S)-2-{(2S)-2-Amino-2-[8-(benzyloxy-ethyl)-8-aza-bicyclo[3.2.1]oct-3-yl]-exo-ethanoyl}-2-azabicyclo[3.1.0]hexane-3-carbonitrile trifluoroacetic acid salt] | 21

Same assay, conditions: compound 1000 nM; relative to vehicle controls; read-out: % inhibition at 1000 nM

Row | SMILES | inhibition at 1 µM [%]
3 | N[C@H](C(=O)N1[C@H](C(=O)O)C[C@@H]2C[C@@H]21)C1CC2CCC(C1)N2C(=O)c1ccc2c(c1)OCO2 (stereo partly drawn) [Compound 46, (1S,3S,5S)-2-{(2S)-2-Amino-2-[8-(benzo[1,3]-dioxole-5-carbonyl)-8-aza-bicyclo[3.2.1]-oct-3-yl]-exo-ethanoyl}-2-azabicyclo[3.1.0]hexane-3-carboxylic acid hydrochloride] | 13

Same assay, conditions: human recombinant DPP-IV, 50 μM Gly-Pro-AMC, 30 min at 30° C.

Row | SMILES | IC50 [nM]
4 | N#C[C@@H]1C[C@@H]2C[C@@H]2N1C(=O)[C@@H](N)C1CC2CCC(C1)N2C(=O)c1cccnc1F (stereo partly drawn) [Compound 32, (1S,3S,5S)-2-{(2S)-2-Amino-2-[8-(2-fluoropyridine-3-carbonyl)-8-aza-bicyclo[3.2.1]oct-3-yl]-exo-ethanoyl}-2-azabicyclo[3.1.0]hexane-3-carbonitrile trifluoroacetic acid salt] | 6.84
5 | N#C[C@@H]1C[C@@H]2C[C@@H]2N1C(=O)[C@@H](N)C1CC2CCC(C1)N2C(=O)c1cc(F)c(F)cc1F (stereo partly drawn) [Compound 23, (1S,3S,5S)-2-{(2S)-2-Amino-2-[8-(2,4,5-trifluorobenzoyl)-8-aza-bicyclo[3.2.1]oct-3-yl]-exo-ethanoyl}-2-azabicyclo[3.1.0]hexane-3-carbonitrile trifluoroacetic acid salt] | 9.75
6 | N#C[C@@H]1CCCN1C(=O)[C@@H](N)C1CC2CCC(C1)N2C(=O)c1ccncc1 (stereo partly drawn) [Compound 4, (2S)-1-{(2S)-2-Amino-2-[8-(pyridine-4-carbonyl)-8-aza-bicyclo[3.2.1]oct-3-yl]-exo-ethanoyl}-pyrrolidin-2-carbonitrile trifluoroacetic acid salt] | 1.03
7 | N#C[C@@H]1C[C@@H]2C[C@@H]2N1C(=O)[C@@H](N)C1CC2CCC(C1)N2C(=O)c1ccncc1F (stereo partly drawn) [Compound 41, (1S,3S,5S)-2-{(2S)-2-Amino-2-[8-(3-fluoropyridine-4-carbonyl)-8-aza-bicyclo[3.2.1]oct-3-yl]-exo-ethanoyl}-2-azabicyclo[3.1.0]hexane-3-carbonitrile trifluoroacetic acid salt] | 4.92
8 | N#C[C@@H]1C[C@@H]2C[C@@H]2N1C(=O)[C@@H](N)C1CC2CCC(C1)N2C(=O)c1cc(F)ccc1F (stereo partly drawn) [Compound 27, (1S,3S,5S)-2-{(2S)-2-Amino-2-[8-(2,5-difluorobenzoyl)-8-aza-bicyclo[3.2.1]oct-3-yl]-exo-ethanoyl}-2-azabicyclo[3.1.0]hexane-3-carbonitrile trifluoroacetic acid salt] | 17.2
9 | N#C[C@@H]1C[C@@H]2C[C@@H]2N1C(=O)[C@@H](N)C1CC2CCC(C1)N2S(=O)(=O)c1cc(F)cc(F)c1 (stereo partly drawn) [Compound 42, (1S,3S,5S)-2-{(2S)-2-Amino-2-[8-(3,5-difluorobenzenesulfonyl)-8-aza-bicyclo[3.2.1]oct-3-yl]-exo-ethanoyl}-2-azabicyclo[3.1.0]hexane-3-carbonitrile trifluoroacetic acid salt] | 9
